In PubChem BioAssay AID1259407 (Chemical Carcinogenesis Research Information System (CCRIS), 2018) one finds mutagenic call data, which are given here for six compounds.

The source made the active and inactive calls. No rule for the calls is given here.

The series deals with CCRIS mutagenicity, Ames/micronucleus/aberration tests. Description: CCRIS mutagenicity studies.
Setting [1] is: Test System: AMES SALMONELLA TYPHIMURIUM, Strain/Indicator: TA98, Metabolic Activation: NONE, Method: PREINCUBATION
[2] abbreviates: Test System: AMES SALMONELLA TYPHIMURIUM, Strain/Indicator: TA98, Metabolic Activation: NONE, Method: STANDARD PLATE.
Setting [3] is: Test System: AMES SALMONELLA TYPHIMURIUM, Strain/Indicator: TA98, Metabolic Activation: RAT, LIVER, S-9, AROCLOR 1254, Method: STANDARD PLATE.
The mark [4] stands for this setting: Test System: AMES SALMONELLA TYPHIMURIUM, Strain/Indicator: TA100, Metabolic Activation: NONE, Method: PREINCUBATION
Where [5] appears, read: Test System: AMES SALMONELLA TYPHIMURIUM, Strain/Indicator: TA100, Metabolic Activation: NONE, Method: STANDARD PLATE.
The mark [6] stands for this setting: Test System: AMES SALMONELLA TYPHIMURIUM, Strain/Indicator: TA100, Metabolic Activation: RAT, LIVER, S-9, AROCLOR 1254, Method: STANDARD PLATE.
Setting [7] is: Test System: AMES SALMONELLA TYPHIMURIUM, Strain/Indicator: TA1535, Metabolic Activation: NONE, Method: PREINCUBATION
Where [8] appears, read: Test System: AMES SALMONELLA TYPHIMURIUM, Strain/Indicator: TA1537, Metabolic Activation: NONE, Method: PREINCUBATION
Setting [9] is: Test System: AMES SALMONELLA TYPHIMURIUM, Strain/Indicator: TA1538, Metabolic Activation: NONE, Method: PREINCUBATION
Where [10] appears, read: Test System: AMES SALMONELLA TYPHIMURIUM, Strain/Indicator: TA102, Metabolic Activation: NONE, Method: STANDARD PLATE.

Consider `C[C@]12CCC(=O)C=C1[C@@H]1C[C@@H]1[C@H]1[C@@H]3[C@@H]4C[C@@H]4[C@@]4(CCC(=O)O4)[C@@]3(C)CC[C@@H]12`, for which the mutagenic call was “inactive; negative” (End Point: IN VITRO CHROMOSOMAL ABERRATIONS, Test System: HUMAN PERIPHERAL LYMPHOCYTES, Metabolic Activation: NONE); “inactive; negative” (End Point: IN VITRO CHROMOSOMAL ABERRATIONS, Test System: HUMAN PERIPHERAL LYMPHOCYTES, Metabolic Activation: RAT, LIVER, S-9, AROCLOR 1254); “inactive; negative” (End Point: IN VIVO MICRONUCLEUS, Test System: BONE MARROW POLYCHROMATIC ERYTHROCYTES, Species: MOUSE, Strain/Sex: NMRI/MALE, FEMALE, Route: INTRAGASTRIC); “inactive; negative” under setting [1]; “inactive; negative” under setting [2]; “inactive; negative” (Test System: AMES SALMONELLA TYPHIMURIUM, Strain/Indicator: TA98, Metabolic Activation: RAT, LIVER, S-9, AROCLOR 1254, Method: PREINCUBATION). In addition, the mutagenic call runs as follows: under setting [3], “inactive; negative”; under setting [4], “inactive; negative”; under setting [5], “inactive; negative”; (Test System: AMES SALMONELLA TYPHIMURIUM, Strain/Indicator: TA100, Metabolic Activation: RAT, LIVER, S-9, AROCLOR 1254, Method: PREINCUBATION) “inactive; negative”; under setting [6], “inactive; negative”; under setting [7], “inactive; negative”. In addition, the mutagenic call (Test System: AMES SALMONELLA TYPHIMURIUM, Strain/Indicator: TA1535, Metabolic Activation: NONE, Method: STANDARD PLATE) is “inactive; negative”; the mutagenic call (Test System: AMES SALMONELLA TYPHIMURIUM, Strain/Indicator: TA1535, Metabolic Activation: RAT, LIVER, S-9, AROCLOR 1254, Method: PREINCUBATION) is “inactive; negative”; the mutagenic call (Test System: AMES SALMONELLA TYPHIMURIUM, Strain/Indicator: TA1535, Metabolic Activation: RAT, LIVER, S-9, AROCLOR 1254, Method: STANDARD PLATE) was “inactive; negative”; the mutagenic call under setting [8] is “inactive; negative”; the mutagenic call (Test System: AMES SALMONELLA TYPHIMURIUM, Strain/Indicator: TA1537, Metabolic Activation: NONE, Method: STANDARD PLATE) is “inactive; negative”; the mutagenic call (Test System: AMES SALMONELLA TYPHIMURIUM, Strain/Indicator: TA1537, Metabolic Activation: RAT, LIVER, S-9, AROCLOR 1254, Method: PREINCUBATION) is “inactive; negative”. Moreover, the mutagenic call runs as follows: (Test System: AMES SALMONELLA TYPHIMURIUM, Strain/Indicator: TA1537, Metabolic Activation: RAT, LIVER, S-9, AROCLOR 1254, Method: STANDARD PLATE) “inactive; negative”; under setting [9], “inactive; negative”; (Test System: AMES SALMONELLA TYPHIMURIUM, Strain/Indicator: TA1538, Metabolic Activation: NONE, Method: STANDARD PLATE) “inactive; negative”; (Test System: AMES SALMONELLA TYPHIMURIUM, Strain/Indicator: TA1538, Metabolic Activation: RAT, LIVER, S-9, AROCLOR 1254, Method: PREINCUBATION) “inactive; negative”; (Test System: AMES SALMONELLA TYPHIMURIUM, Strain/Indicator: TA1538, Metabolic Activation: RAT, LIVER, S-9, AROCLOR 1254, Method: STANDARD PLATE) “inactive; negative”; (Test System: CHINESE HAMSTER V-79, Strain/Indicator: V-79 (HGPRT)/6-THIOGUANINE, Metabolic Activation: NONE) “inactive; negative”. For the same compound, where the note is “Test System: CHINESE HAMSTER V-79, Strain/Indicator: V-79 (HGPRT)/6-THIOGUANINE, Metabolic Activation: RAT, LIVER, S-9, AROCLOR 1254”, the mutagenic call is “inactive; negative”.

For the compound `CC(=O)c1cccc(N=Nc2ccc(N)c(C(C)=O)c2C)c1C`, the mutagenic call reads like this: under setting [1], “inactive; negative”; (Test System: AMES SALMONELLA TYPHIMURIUM, Strain/Indicator: TA98, Metabolic Activation: RAT, LIVER, S-9, PHENOBARBITAL AND 5,6-BENZOFLAVONE, Method: PREINCUBATION) “inactive; negative”; under setting [4], “inactive; negative”; (Test System: AMES SALMONELLA TYPHIMURIUM, Strain/Indicator: TA100, Metabolic Activation: RAT, LIVER, S-9, PHENOBARBITAL AND 5,6-BENZOFLAVONE, Method: PREINCUBATION) “inactive; negative”.

Turning to `C=CC1CC2C=CC1C2` (centres undefined), the mutagenic call under setting [1] is “inactive; negative”; the mutagenic call (Test System: AMES SALMONELLA TYPHIMURIUM, Strain/Indicator: TA98, Metabolic Activation: RAT LIVER S-9, AROCLOR 1254, Method: PREINCUBATION) was “inactive; negative”; the mutagenic call under setting [4] is “inactive; negative”; the mutagenic call (Test System: AMES SALMONELLA TYPHIMURIUM, Strain/Indicator: TA100, Metabolic Activation: RAT LIVER S-9, AROCLOR 1254, Method: PREINCUBATION) is “inactive; negative”; the mutagenic call under setting [7] is “inactive; negative”; the mutagenic call (Test System: AMES SALMONELLA TYPHIMURIUM, Strain/Indicator: TA1535, Metabolic Activation: RAT LIVER S-9, AROCLOR 1254, Method: PREINCUBATION) is “inactive; negative”. In addition, the mutagenic call is, setting by setting: under setting [8], “inactive; negative”; (Test System: AMES SALMONELLA TYPHIMURIUM, Strain/Indicator: TA1537, Metabolic Activation: RAT LIVER S-9, AROCLOR 1254, Method: PREINCUBATION) “inactive; negative”; under setting [9], “inactive; negative”; (Test System: AMES SALMONELLA TYPHIMURIUM, Strain/Indicator: TA1538, Metabolic Activation: RAT LIVER S-9, AROCLOR 1254, Method: PREINCUBATION) “inactive; negative”; (Test System: CHINESE HAMSTER OVARY, Strain/Indicator: CHO-K1-BH4 (HGPRT)/6-THIOGUANINE, Metabolic Activation: NONE) “inactive; negative”; (Test System: CHINESE HAMSTER OVARY, Strain/Indicator: CHO-K1-BH4 (HGPRT)/6-THIOGUANINE, Metabolic Activation: RAT LIVER S-9, AROCLOR 1254) “inactive; negative”.

Regarding `O=C1NC(=O)C2CC=CCC12` (centres undefined), the mutagenic call is “inactive; negative” under setting [10]; “inactive; negative” (Test System: AMES SALMONELLA TYPHIMURIUM, Strain/Indicator: TA102, Metabolic Activation: RAT, LIVER, S-9, PHENOBARBITAL, Method: STANDARD PLATE); “inactive; negative” (Test System: AMES SALMONELLA TYPHIMURIUM, Strain/Indicator: TA104, Metabolic Activation: NONE, Method: STANDARD PLATE); “inactive; negative” (Test System: AMES SALMONELLA TYPHIMURIUM, Strain/Indicator: TA104, Metabolic Activation: RAT, LIVER, S-9, PHENOBARBITAL, Method: STANDARD PLATE).

As for `CCOC(=O)c1[nH]c2ccccc2c1N=Cc1ccc(NC(C)=O)cc1`, the mutagenic call by setting is: (Test System: AMES SALMONELLA TYPHIMURIUM, Strain/Indicator: TA97, Metabolic Activation: NONE, Method: STANDARD PLATE) “active; positive”; (Test System: AMES SALMONELLA TYPHIMURIUM, Strain/Indicator: TA97, Metabolic Activation: RAT, LIVER, S-9, AROCLOR 1254, Method: STANDARD PLATE) “inactive; negative”; under setting [2], “inactive; negative”; under setting [3], “inactive; negative”; under setting [5], “inactive; negative”; under setting [6], “inactive; negative”. In addition, the mutagenic call is “inactive; negative” under setting [10] and “inactive; negative” (Test System: AMES SALMONELLA TYPHIMURIUM, Strain/Indicator: TA102, Metabolic Activation: RAT, LIVER, S-9, AROCLOR 1254, Method: STANDARD PLATE).

With `Nc1ccc2snc(Cl)c2c1`, the mutagenic call under setting [5] is “active; positive”.
